Test results reported in US9278097B2, “Prophylaxis and/or treatment of portal hypertension” (Universitatsklinikum Freiburg, priority 2003, dated 2016).

What was measured:
Assay type in all cases: in vivo, human
[1] = system: patients having portal hypertension (origin: liver cirrhosis in the status of Child A); test: Doppler sonography of liver haemodynamics before and 1 h after oral Vardenafil, patients; details: continuous measurement after 10 mg oral, FIG. 4
Description: In a further study, 16 healthy volunteers and 15 patients having portal hypertension (origin: liver cirrhosis in the status of Child A) were subjected to the following treatment:
In both the volunteers and the patients with empty stomach (10 hours of food leave), firstly the pulse rate and blood pressure under lying condition and subsequently the parameters of liver haemodynamics were measured by Doppler sonography.
The portal vein pressure is derived from the values obtained from the application of the apparatus Elegra from Siemens having a 3.5 MHz sectorial scanner (K. Haag et al., Am. J. Roentgenol 1999; 172: 631-635). Each measurement was carried out three times in total. The mean value from all three measurements was used. The measurements were carried out in the resting expiratory position. When measuring the flows and the flow volumina, the sonic angle lied below 60°. The sectional plane was basically chosen such that the vessel will be illustrated in its longitudinal route.
Flow measurements in the Vena portae as well as in their intrahepatic main stems. The determination of the flow volume in the portal vein, the Vena lienalis and the Vena mesenterica was carried out by Doppler-sonography, as measured by the options of the apparatus and by calculation through the formula: flow=π·d^2/4·Vmax2·60, wherein d is indicated in cm and Vmax is indicated in cm/s. Vena Lienalis: […]

[2] = system: patients, who had a pathological collateral or detour circulation, as originally caused by liver cirrhosis; test: Doppler sonography of flow in the porto-systemic detour circulation before and after oral Vardenafil; details: two patients, single oral administration of 10 mg
Description: Hereby, before and after a single oral administration of 10 mg Vardenafil, the flow in the porto-systemic detour circulation was measured by Doppler-sonography: once in a patient having V. coronaria ventriculi as well as oesophagus varices, and another time in a patient having re-opened V. umbilicalis.

[3] = system: patient having liver cirrhosis due to a chronic Hepatitis C; test: Invasive measurement of wedged hepatic vein pressure (portal vein pressure) by balloon catheter; details: one patient, 25 minutes after 10 mg oral; 31 mm Hg prior to administration
Description: In a patient having liver cirrhosis due to a chronic Hepatitis C, the wedged hepatic vein pressure, which can be equated with the portal vein pressure, was measured invasively. For this, a balloon catheter was introduced through the Vena jugularis interna into a small hepatic vein under X-ray control. Then, the free hepatic vein pressure may be measured, when the tip of the catheter lies freely in the lumen of the small vein. When the balloon is dilated (the diameter of this small hepatic vein amounts to a few mm), a congestion pressure is built-up at the tip of the catheter, corresponding to the portal vein pressure. In the tested patient, the portal vein pressure prior to the oral administration of a medicament was at 31 mm Hg.

[4] = system: volunteers; test: Sonographic / Doppler sonographic measurement of blood flow through the liver and blood pressure before and 90 minutes after oral Sildenafil; details: 100 mg oral
Description: With ten volunteers, the base values of the blood flow through the liver were measured in the morning before breakfast by means of common sonographic or Doppler sonographic methods. Subsequently, 100 mg Sildenafil were administered orally for each test person. On the average, 90 minutes after administration of this drug, the measurements were repeated.

[5] = system: volunteers; test: as above; details: 100 mg oral, n = 5, baseline mean 0.83

**Q.** CCCc1nc(C)c2c(=O)[nH]c(-c3cc(S(=O)(=O)N4CCN(CC)CC4)ccc3OCC)nn12 [Vardenafil] was tested. Which “Time after which increase of flow velocity in the portal vein and portal vein flow is clearly detectable” value ([1]; individual patient (liver cirrhosis), similar in practically all other patients) did it give?
**A.** 15 min

**Q.** And the “Time at which effect on portal vein flow is most pronounced” value ([1]; individual patient)?
**A.** 20 to 30 min

**Q.** What about the “Decrease of flow in the V. coronaria ventriculi or in the umbilical vein” value [2] of the same molecule?
**A.** about 30%

**Q.** And the “Portal vein pressure (wedged hepatic vein pressure)” value [3]?
**A.** 26 mm Hg

**Q.** CCCc1nn(C)c2c(=O)[nH]c(-c3cc(S(=O)(=O)N4CCN(C)CC4)ccc3OCC)nc12 [Sildenafil, 1-{[3-(6,7-Dihydro-1-methyl-7-oxo-3-propyl-1H-pyrazolo-[4,3-d]pyrimidin-5-yl)-4-ethoxyphenyl]sulfonyl}-4-methyl-piperazine] was tested. Which “Diameter of V. lienalis, change by Sildenafil (in %)” value ([4]; 90 minutes, n = 10) did it give?
**A.** +13%

**Q.** And the “Diameter of portal vein, change by Sildenafil (in %)” value ([4]; 90 minutes, n = 10)?
**A.** +12.8%

**Q.** What about the “Diastolic blood pressure, change by Sildenafil (in %)” value ([4]; 90 minutes, n = 10) of the same molecule?
**A.** −9.5%

**Q.** And the “Resistivity Index of A. hepatica communis, change by Sildenafil (in %)” value ([4]; 90 minutes, n = 10)?
**A.** +4.48%

**Q.** And the “Resistivity Index of Truncus coeliacus, change by Sildenafil (in %)” value ([4]; 90 minutes, n = 10)?
**A.** −1.5%

**Q.** What about the “Vmax of V. lienalis, change by Sildenafil (in %)” value ([4]; 90 minutes, n = 10) of the same molecule?
**A.** −2.3%

**Q.** What about the “Vmax of portal vein, change by Sildenafil (in %)” value ([4]; 90 minutes, n = 10) of the same molecule?
**A.** −5.3%

**Q.** And the “Resistivity Index of A. hepatica communis, change by Sildenafil (absolute)” value ([4]; 90 minutes, n = 10, baseline mean 0.67)?
**A.** +0.03

**Q.** And the “Resistivity Index of Truncus coeliacus, change by Sildenafil (absolute)” value ([4]; 90 minutes, n = 10, baseline mean 0.75)?
**A.** −0.115

**Q.** What about the “Diameter of V. lienalis, change by Sildenafil (absolute)” value ([4]; 90 minutes, n = 10, baseline mean 7.7) of the same molecule?
**A.** 1.0 mm

**Q.** What about the “Diameter of portal vein, change by Sildenafil (absolute)” value ([4]; 90 minutes, n = 10, baseline mean 11.7) of the same molecule?
**A.** 1.5 mm

**Q.** What about the “Vmax of V. lienalis, change by Sildenafil (absolute)” value ([4]; 90 minutes, n = 10, baseline mean 20.14) of the same molecule?
**A.** -0.47 cm/s

**Q.** What about the “Vmax of portal vein, change by Sildenafil (absolute)” value ([4]; 90 minutes, n = 10, baseline mean 30.5) of the same molecule?
**A.** -1.63 cm/s

**Q.** And the “Diastolic blood pressure, change by Sildenafil (absolute)” value ([4]; 90 minutes, n = 10, baseline mean 80.5)?
**A.** −7.64 mm Hg

**Q.** And the “Systolic blood pressure, change by Sildenafil (in %)” value ([4]; on average 90 minutes after administration, n = 10)?
**A.** −10.0%

**Q.** And the “Systolic blood pressure, change by Sildenafil (absolute)” value ([4]; on average 90 minutes after administration, n = 10, baseline mean 122)?
**A.** −12.21 mm Hg

**Q.** What about the “Portal vein flow, change by Sildenafil (absolute)” value [5] of the same molecule?
**A.** +0.27 l/mm
